# Measurements published in patent publication US6696484B2, “Method and compositions for regulation of 5-alpha reductase activity” (University of Chicago Office of Technology and Intellectual …, priority 1997, dated 2004).
# Columns and labels:
# Assay type in all cases: in vivo, BALB/c athymic (nude) mice
# [1] = test system: LNCaP 104-R2 tumors; test: Growth of LNCaP 104-R2 tumors in castrated male nude mice
# [2] = Biological effects of TP implants in nude mice (serum testosterone, seminal vesicle weight, body weight); conditions: 4th week after androgen implantation
# Description: (§1) BALB/c athymic (nude) male (LNCaP, PC-3 cell lines) and female (MCF-7 cell line) mice (Taconic Inc., Germantown, N.Y.), 5 to 7 weeks-old, were used. Mice were housed in a pathogen-free environment, four to five mice per cage. Cages (filter top), bedding and water were autoclaved before use. Feed was irradiated Pico Lab Mouse Chow 20 5058 (Purina). All procedures involving animals were approved by the University of Chicago Institutional Animal Care and Use Committee. For the tumor growth studies, 10^6 cells in 0.25 ml of culture medium were mixed with 0.25 ml of Matrigel™ (Collaborative Research, Bedford, Mass.) and were injected subcutaneously into one or both flanks of the mice as described previously (Liao et al., 1995). Tumor size was measured weekly and tumor volume was calculated using the formula L×W×H×0.52 (Janek and Hartman, 1975). Bilateral orchiectomy and subcutaneous implantation or removal of pellets were performed under Metofane anesthesia. Blood samples were obtained by heart puncture or from the orbital plexus while mice were under anesthesia and analyzed for testosterone levels by radioimmunoassay or PSA levels by dual-site reactive enzymatic immunoassay (Tandem®-E PSA, Hybritech, San Diego, Calif.). […] All numerical data are expressed as the average of the values obtained from 4 to 6 tumors and the standard error. […]
# [3] = test system: PC-3 tumors; test: Growth of PC-3 tumors in nude mice
# [4] = test system: LNCaP 104-R2 tumors; test: Expression of AR, c-myc and PSA by LNCaP 104-R2 tumors (ribonuclease protection assay, serum PSA immunoassay); conditions: after 1 week of TP treatment
# Description: as §1
# [5] = test system: MCF-7 tumors; test: Growth of MCF-7 tumors in female nude mice
# [6] = test system: LNCaP 104-S tumors; test: Growth of LNCaP 104-S tumors in nude mice; conditions: TP implanted at the time of castration; from 299±27 (SE) mm^3; ±SE
smiles,measurement,setting,value
"CCC(=O)O[C@H]1CC[C@H]2[C@@H]3CCC4=CC(=O)CC[C@]4(C)[C@H]3CC[C@]12C [TP, testosterone propionate]",LNCaP 104-R2 tumor size within 4 weeks after removal of TP,"[1]; TP implanted at 4th week, removed at 7th week, regrew from 96±26 (SE) mm^3",641±157 mm^3
same,LNCaP 104-R2 tumor size four weeks after TP implantation,"[1]; TP implanted at 7th week, from 884±64 (SE) mm^3",208±33 mm^3
same,body weight of nude mice,[2],no loss
same,increase of seminal vesicle weight,[2]; vs castrates without TP,about 10 times
same,effect on growth of AR negative PC-3 tumors,[3],did not affect
same,increase of serum PSA,[4],more than 10 fold
same,increase of the level of PSA mRNA in tumor samples,[4],more than 10 fold
same,effect on growth of MCF-7 tumors,[5],not affected
same,LNCaP 104-S tumor size 4 weeks after castration with TP implant,[6],965±166 mm^3
